Read-outs that look alike come from different tables or passages of the source.
System: vesicular stomatitis virus particles (VSV) pseudotyped with EboV Zaire GP
Experiment: microbe, parasite or virus in culture
Format: cell-based

Row | SMILES | IC50 (Vesicular stomatitis virus) [nM] | IC50 (read-out: IC50) [nM]
1 | COC(=O)c1cccc(Oc2cc(Cl)cc(CN3CCN(C(=O)CNC(=O)CC45CC6CC(CC(C6)C4)C5)CC3)c2)c1 [Compound 1322, Methyl 3-(3-((4-((2-((1R,3R,5S)-adamantan-1-yl)acetyl)glycyl)piperazin-1-yl)methyl)-5-chlorophenoxy)benzoate] | 11 | –
2 | COC(=O)c1ccc(Oc2cc(Cl)cc(CN3CCN(C(=O)CNC(=O)CC45CC6CC(CC(C6)C4)C5)CC3)c2)cc1 [Compound 1323, Methyl 4-(3-((4-((2-((1R,3R,5S)-adamantan-1-yl)acetyl)glycyl)piperazin-1-yl)methyl)-5-chlorophenoxy)benzoate] | – | 15
3 | O=C(CC12CC3CC(CC(C3)C1)C2)NCC(=O)N1CCN(Cc2cc(F)c(F)cc2O)CC1 [Compound 1324, 2-((1R,3R,5S)-Adamantan-1-yl)-N-(2-(4-(4,5-difluoro-2-hydroxybenzyl)piperazin-1-yl)-2-oxoethyl)acetamide] | 1500 | –
4 | O=C(CC12CC3CC(CC(C3)C1)C2)NCC(=O)N1CCN(Cc2cc(F)cc(F)c2O)CC1 [Compound 1325, 2-((1R,3R,5S)-Adamantan-1-yl)-N-(2-(4-(3,5-difluoro-2-hydroxybenzyl)piperazin-1-yl)-2-oxoethyl)acetamide] | 1000 | –
5 | O=C(CC12CC3CC(CC(C3)C1)C2)NCC(=O)N1CCN(Cc2cc(Cl)cc(C(F)(F)F)c2)CC1 [Compound 1326, 2-((1R,3R,5S)-Adamantan-1-yl)-N-(2-(4-(3-chloro-5-(trifluoromethyl)benzyl)piperazin-1-yl)-2-oxoethyl)acetamide] | 920 | –
6 | O=C(CC12CC3CC(CC(C3)C1)C2)NCC(=O)N1CCN(Cc2cc(Cl)cc(F)c2F)CC1 [Compound 1327, 2-((1R,3R,5S)-Adamantan-1-yl)-N-(2-(4-(5-chloro-2,3-difluorobenzyl)piperazin-1-yl)-2-oxoethyl)acetamide] | 670 | –
7 | COC(=O)c1ccc(COc2ccccc2CN2CCN(C(=O)CNC(=O)C3(C)CCC(F)(F)CC3)CC2)cc1 [Compound 1328, Methyl 4-((2-((4-((4,4-difluoro-1-methylcyclohexane-1-carbonyl)glycyl)piperazin-1-yl)methyl)phenoxy)methyl)benzoate] | 250 | –
8 | N#Cc1ccc(Br)cc1CN1CCN(C(=O)CNC(=O)CC23CC4CC(CC(C4)C2)C3)CC1 [Compound 1329, 2-((1R,3R,5S)-Adamantan-1-yl)-N-(2-(4-(5-bromo-2-cyanobenzyl)piperazin-1-yl)-2-oxoethyl)acetamide] | 310 | –
9 | O=C(CC12CC3CC(C1)C(C3)C2)NCC(=O)N1CCN(Cc2cc(Cl)cc(OC(F)(F)F)c2)CC1 [Compound 1330] | 1510 | –
10 | O=C(CC12CC3CC(CC(C3)C1)C2)NCC(=O)N1CCN(Cc2cc(Cl)cc(Br)c2)CC1 [Compound 1332, 2-((1R,3R,5S)-Adamantan-1-yl)-N-(2-(4-(3-bromo-5-chlorobenzyl)piperazin-1-yl)-2-oxoethyl)acetamide] | 900 | –
11 | COC(=O)c1ccc(COc2ccc(Cl)cc2CN2CCN(C(=O)CNC(=O)CC3CCC(F)(F)CC3)CC2)cc1 [Compound 1333, Methyl 4-((4-chloro-2-((4-((2-(4,4-difluorocyclohexyl)acetyl)glycyl)piperazin-1-yl)methyl)phenoxy)methyl)benzoate] | 15 | –
12 | COC(=O)c1ccc(COc2ccc(Cl)cc2CN2CCN(C(=O)CNC(=O)CC3(C)CCCCC3)CC2)cc1 [Compound 1334, Methyl 4-((4-chloro-2-((4-((2-(1-methylcyclohexyl)acetyl)glycyl)piperazin-1-yl)methyl)phenoxy)methyl)benzoate] | 19 | –
13 | COC(=O)c1ccc(COc2ccc(F)cc2CN2CCN(C(=O)CNC(=O)CC3CCC(F)(F)CC3)CC2)cc1 [Compound 1335, Methyl 4-((2-((4-((2-(4,4-difluorocyclohexyl)acetyl)glycyl)piperazin-1-yl)methyl)-4-fluorophenoxy)methyl)benzoate] | 18 | –
14 | COC(=O)c1ccc(COc2ccc(F)cc2CN2CCN(C(=O)CNC(=O)CC3(C)CCCCC3)CC2)cc1 [Compound 1336, Methyl 4-((4-fluoro-2-((4-((2-(1-methylcyclohexyl)acetyl)glycyl)piperazin-1-yl)methyl)phenoxy)methyl)benzoate] | 51 | –
15 | O=C(CC12CC3CC(CC(C3)C1)C2)NCC(=O)N1CCN(Cc2cc(Br)ccc2F)CC1 [Compound 1337, 2-((1R,3R,5S)-Adamantan-1-yl)-N-(2-(4-(5-bromo-2-fluorobenzyl)piperazin-1-yl)-2-oxoethyl)acetamide] | 1200 | –
16 | O=C(CC12CC3CC(CC(C3)C1)C2)NCC(=O)N1CCN(Cc2cc(Br)ccc2Cl)CC1 [Compound 1338, 2-((1R,3R,5S)-Adamantan-1-yl)-N-(2-(4-(5-bromo-2-chlorobenzyl)piperazin-1-yl)-2-oxoethyl)acetamide] | 82 | –
17 | O=C(CC12CC3CC(CC(C3)C1)C2)NCC(=O)N1CCN(Cc2cc(F)cc(Br)c2)CC1 [Compound 1339, 2-((1R,3R,5S)-Adamantan-1-yl)-N-(2-(4-(3-bromo-5-fluorobenzyl)piperazin-1-yl)-2-oxoethyl)acetamide] | 1400 | –

Row | SMILES | IC50 (Vesicular stomatitis virus) [nM] | IC50 (read-out: IC50) [nM]
18 | O=C(CC12CC3CC(CC(C3)C1)C2)NCC(=O)N1CCN(Cc2cc(Br)cc([N+](=O)[O-])c2)CC1 [Compound 1340, 2-((1R,3R,5S)-Adamantan-1-yl)-N-(2-(4-(3-bromo-5-nitrobenzyl)piperazin-1-yl)-2-oxoethyl)acetamide] | 1270 | –
19 | Nc1cc(Br)cc(CN2CCN(C(=O)CNC(=O)CC34CC5CC(CC(C5)C3)C4)CC2)c1 [Compound 1341, 2-((1R,3R,5S)-Adamantan-1-yl)-N-(2-(4-(3-amino-5-bromobenzyl)piperazin-1-yl)-2-oxoethyl)acetamide] | 320 | –
20 | CC(=O)Nc1ccc(Cl)cc1CN1CCN(C(=O)CNC(=O)CC23CC4CC(CC(C4)C2)C3)CC1 [Compound 1342, N-(2-(4-(2-Acetamido-5-chlorobenzyl)piperazin-1-yl)-2-oxoethyl)-2-((3s)-adamantan-1-yl)acetamide] | – | 1100
21 | COC(=O)c1ccc(COc2ccccc2CN2CCN(C(=O)CNC(=O)C3C4CC(F)(F)CC43)CC2)cc1 (stereo not shown) [Compound 1344, Methyl 4-((2-((4-((3,3-difluorobicyclo[3.1.0]hexane-6-carbonyl)glycyl)piperazin-1-yl)methyl)phenoxy)methyl)benzoate] | 170 | –
22 | COC(=O)c1ccc(COc2ccc(Cl)cc2CN2CCN(C(=O)CNC(=O)C3C4CC(F)(F)CC43)CC2)cc1 (stereo not shown) [Compound 1346, Methyl 4-((4-chloro-2-((4-((3,3-difluorobicyclo[3.1.0]hexane-6-carbonyl)glycyl)piperazin-1-yl)methyl)phenoxy)methyl)benzoate] | 200 | –
23 | N#Cc1cc(Br)cc(CN2CCN(C(=O)CNC(=O)CC34CC5CC(CC(C5)C3)C4)CC2)c1 [Compound 1348, 2-((1R,3R,5S)-Adamantan-1-yl)-N-(2-(4-(3-bromo-5-cyanobenzyl)piperazin-1-yl)-2-oxoethyl)acetamide] | 1300 | –
24 | Nc1c(Cl)cc(Cl)cc1CN1CCN(C(=O)CNC(=O)CC23CC4CC(CC(C4)C2)C3)CC1 [Compound 1349, 2-((1R,3R,5S)-Adamantan-1-yl)-N-(2-(4-(2-amino-3,5-dichlorobenzyl)piperazin-1-yl)-2-oxoethyl)acetamide] | 500 | –
25 | O=C(CC12CC3CC(CC(C3)C1)C2)NCC(=O)N1CCN(Cc2cc(Cl)cc(Cl)c2Cl)CC1 [Compound 1350, 2-((1R,3R,5S)-adamantan-1-yl)-N-(2-oxo-2-(4-(2,3,5-trichlorobenzyl)piperazin-1-yl)ethyl)acetamide] | 800 | –
26 | O=C(CC12CC3CC(CC(C3)C1)C2)NCC(=O)N1CCN(Cc2cc(Cl)ccc2Br)CC1 [Compound 1351, 2-((1R,3R,5S)-Adamantan-1-yl)-N-(2-(4-(2-bromo-5-chlorobenzyl)piperazin-1-yl)-2-oxoethyl)acetamide] | 1100 | –
27 | C#Cc1ccc(F)c(CN2CCN(C(=O)CNC(=O)CC34CC5CC(CC(C5)C3)C4)CC2)c1 [Compound 1352, 2-((1R,3R,5S)-Adamantan-1-yl)-N-(2-(4-(5-ethynyl-2-fluorobenzyl)piperazin-1-yl)-2-oxoethyl)acetamide] | 1700 | –
28 | O=C(CC12CC3CC(CC(C3)C1)C2)NCC(=O)N1CCN(Cc2cc(F)c(F)cc2Cl)CC1 [Compound 1353, 2-((1R,3R,5S)-Adamantan-1-yl)-N-(2-(4-(2-chloro-4,5-difluorobenzyl)piperazin-1-yl)-2-oxoethyl)acetamide] | 1500 | –
29 | O=C(CC12CC3CC(CC(C3)C1)C2)NCC(=O)N1CCN(Cc2cc(OC3CC3)ccc2F)CC1 [Compound 1354, 2-((1R,3R,5S)-Adamantan-1-yl)-N-(2-(4-(5-cyclopropoxy-2-fluorobenzyl)piperazin-1-yl)-2-oxoethyl)acetamide] | > 2000 | –
30 | Nc1ccc(Br)cc1CN1CCN(C(=O)CNC(=O)CC2CCC(F)(F)CC2)CC1 [Compound 1355, N-(2-(4-(2-Amino-5-bromobenzyl)piperazin-1-yl)-2-oxoethyl)-2-(4,4-difluorocyclohexyl)acetamide] | 1740 | –
31 | O=C(NCC(=O)N1CCN(Cc2cc(Br)ccc2Cl)CC1)C1C2CC(F)(F)CC21 (stereo not shown) [Compound 1356, N-(2-(4-(5-bromo-2-chlorobenzyl)piperazin-1-yl)-2-oxoethyl)-3,3-difluorobicyclo[3.1.0]hexane-6-carboxamide] | > 2000 | –
32 | COC(=O)c1ccc(COc2ccc(Cl)cc2CN2CCN(C(=O)CNC(=O)C3CC3(F)F)CC2)cc1 (stereo not shown) [Compound 1357, Methyl 4-((4-chloro-2-((4-((2,2-difluorocyclopropane-1-carbonyl)glycyl)piperazin-1-yl)methyl)phenoxy)methyl)benzoate] | 500 | –
33 | COC(=O)c1ccc(COc2ccc(Cl)cc2CN2CCN(C(=O)CNC(=O)C(F)(F)C(F)F)CC2)cc1 [Compound 1358, Methyl 4-((4-chloro-2-((4-((2,2,3,3-tetrafluoropropanoyl)glycyl)piperazin-1-yl)methyl)phenoxy)methyl)benzoate] | 200 | –
34 | Nc1ccc(-c2ccc(F)cc2)cc1CN1CCN(C(=O)CNC(=O)CC2CCC(F)(F)CC2)CC1 [Compound 1359, N-(2-(4-((4-Amino-4′-fluoro-[1,1′-biphenyl]-3-yl)methyl)piperazin-1-yl)-2-oxoethyl)-2-(4,4-difluorocyclohexyl)acetamide] | > 2000 | –

Reference: patent publication US11629139B2 (priority 2017, dated 2023)
